In ChEMBL document CHEMBL1201862, “PubChem BioAssay data set” (2004):
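Tested at 5 concentrations; 48 h exposure; 96-well plates; endpoints linearly interpolated, else capped at highest concentration. GI50 is the concentration that inhibits growth by half.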 Calls of active or inactive are those of the source. No stated cut-off is given here; in the data, active = GI50 up to about 1.1 µM and inactive = higher.

Key:
Test in all cases: growth of human tumour cells (NCI), 48 h
A498 = tested on: A498
BT-549 = tested on: BT-549
CAKI-1 = tested on: CAKI-1
CCRF-CEM = tested on: CCRF-CEM
COLO 205 = tested on: COLO 205
HCT-15 = tested on: HCT-15
HOP-62 = tested on: HOP-62
K562 = tested on: K562
MDA-MB-231 = tested on: MDA-MB-231
Malme-3M = tested on: Malme-3M
NCI-H226 = tested on: NCI-H226
NCI-H23 = tested on: NCI-H23
NCI/ADR-RES = tested on: NCI/ADR-RES
OVCAR-3 = tested on: OVCAR-3
OVCAR-4 = tested on: OVCAR-4
SN12C = tested on: SN12C
SNB-75 = tested on: SNB-75
T47D = tested on: T47D
UACC-62 = tested on: UACC-62

| SMILES | GI50 (A498) | GI50 (BT-549) | GI50 (CAKI-1) | GI50 (CCRF-CEM) | GI50 (COLO 205) | GI50 (HCT-15) [µM] | GI50 (HOP-62) | GI50 (K562) | GI50 (MDA-MB-231) | GI50 (Malme-3M) | GI50 (NCI-H226) | GI50 (NCI-H23) | GI50 (NCI/ADR-RES) | GI50 (OVCAR-3) | GI50 (OVCAR-4) | GI50 (SN12C) | GI50 (SNB-75) | GI50 (T47D) | GI50 (UACC-62) |
| --- | --- | --- | --- | --- | --- | --- | --- | --- | --- | --- | --- | --- | --- | --- | --- | --- | --- | --- | --- |
| CCOC(=O)c1c(O)nc(O)c(CC)c1C | > 100 µM (inactive) | > 100 µM (inactive) | > 100 µM (inactive) | > 100 µM (inactive) | > 100 µM (inactive) | > 100 | > 100 µM (inactive) | > 100 µM (inactive) | > 100 µM (inactive) | > 100 µM (inactive) | > 100 µM (inactive) | > 100 µM (inactive) | > 100 µM (inactive) | > 100 µM (inactive) | > 100 µM (inactive) | > 100 µM (inactive) | > 100 µM (inactive) | > 100 µM (inactive) | > 100 µM (inactive) |
| CC(=O)OC(CN1CCN(c2ccccn2)CC1)Cn1sc2nc(C)cc(C)c2c1=O (centres undefined) | 18.1 µM (inactive) | 18.6 µM (inactive) | 18.9 µM (inactive) | 5.78 µM (inactive) | 15.8 µM (inactive) | 20 | 28.8 µM (inactive) | 32.7 µM (inactive) | 17.9 µM (inactive) | 18.6 µM (inactive) | > 100 µM (inactive) | 20.8 µM (inactive) | 27 µM (inactive) | 21.2 µM (inactive) | 22.4 µM (inactive) | 18.9 µM (inactive) | 16 µM (inactive) | 28 µM (inactive) | 16.4 µM (inactive) |
| CCCOC(=O)c1cc(C(=CCC[C@H]2CC[C@@]3(C)[C@@H](CC[C@@H]4[C@@H]3CC[C@]3(C)[C@@H](C(C)CCCC(C)C)CC[C@@H]43)C2)c2cc(Cl)c(O)c(C(=O)OCCC)c2)cc(Cl)c1O (some centres undefined) | > 50 µM (inactive) | > 50 µM (inactive) | > 50 µM (inactive) | > 50 µM (inactive) | > 50 µM (inactive) | > 50 | > 50 µM (inactive) | > 5 µM (inactive) | > 50 µM (inactive) | – | > 50 µM (inactive) | > 50 µM (inactive) | > 50 µM (inactive) | > 50 µM (inactive) | > 50 µM (inactive) | > 50 µM (inactive) | > 50 µM (inactive) | > 50 µM (inactive) | > 50 µM (inactive) |
| Nc1ccc2c(c1)NC(=O)[C@@H]1CCCN1C2=O | > 100 µM (inactive) | > 100 µM (inactive) | > 100 µM (inactive) | > 100 µM (inactive) | > 100 µM (inactive) | > 100 | > 100 µM (inactive) | > 100 µM (inactive) | > 100 µM (inactive) | – | > 100 µM (inactive) | > 100 µM (inactive) | > 100 µM (inactive) | > 100 µM (inactive) | > 100 µM (inactive) | > 100 µM (inactive) | > 100 µM (inactive) | 96.6 µM (inactive) | > 100 µM (inactive) |
| C=CC1CCC[N+]1(CC(=O)OCC)Cc1ccccc1 (centres undefined) | > 100 µM (inactive) | > 100 µM (inactive) | – | > 100 µM (inactive) | > 100 µM (inactive) | > 100 | > 100 µM (inactive) | > 100 µM (inactive) | > 100 µM (inactive) | > 100 µM (inactive) | > 100 µM (inactive) | > 100 µM (inactive) | > 100 µM (inactive) | > 100 µM (inactive) | > 100 µM (inactive) | > 100 µM (inactive) | > 100 µM (inactive) | > 100 µM (inactive) | > 100 µM (inactive) |
| CO/[N+]([O-])=C\C(=O)N/C=C/C(=O)O | > 100 µM (inactive) | > 100 µM (inactive) | > 100 µM (inactive) | > 100 µM (inactive) | > 100 µM (inactive) | > 100 | > 100 µM (inactive) | > 100 µM (inactive) | > 100 µM (inactive) | > 100 µM (inactive) | > 100 µM (inactive) | > 100 µM (inactive) | > 100 µM (inactive) | > 100 µM (inactive) | > 100 µM (inactive) | > 100 µM (inactive) | > 100 µM (inactive) | > 100 µM (inactive) | > 100 µM (inactive) |
| Cc1ccc(O)c(C2=CC3=NNC(=O)C3C(c3cccc(Br)c3)C2)c1 (centres undefined) | 42.9 µM (inactive) | 23.1 µM (inactive) | 23 µM (inactive) | 25.1 µM (inactive) | 12.3 µM (inactive) | 20.9 | 55 µM (inactive) | 25.8 µM (inactive) | 20 µM (inactive) | 25.9 µM (inactive) | – | 23.7 µM (inactive) | 34.6 µM (inactive) | 22.3 µM (inactive) | 8.04 µM (inactive) | 19.9 µM (inactive) | 22.6 µM (inactive) | 20.5 µM (inactive) | 19.6 µM (inactive) |
